Assay results taken from patent US20130018023A1, “COMPOSITIONS FOR TOPICAL ADMINISTRATION” (SOL-GEL TECHNOLOGIES LTD., priority 2010, published 2013).

Assays:
[1] = tested on: VRE; test: MIC determination, macrodilution method; type: cell-based, Vancomycin-Restistant Enterococcus faecali (ATCC 115992)
Description: (§1) Methicillin-resistant Staphylococcus aureus (ATCC 33592) Coagualse Negative Staphylococcus epidermidis (Clinical Isolate) Vancomycin-Restistant Enterococcus faecali (ATCC 115992) Escherischia coli (ATCC 25922) Candida albicans (ATCC 10231)
(§2) Muller Hinton Broth (MHB) was used in this study for all bacteria: BD Cat #211443, Lot numbers 9097650.
(§3) 1. The test organism, (bacteria or yeast) was obtained from frozen cultures. 2. Two days prior to the experiment, a portion of test bacterium from frozen culture collection was streaked and cultured on a non-selective agar plate (e.g. TSA). Plates were then incubated overnight at 37° C.±1° C. and the culture was examined for purity prior to use. […] 3. The day prior to the experiment, a portion of test organism was inoculated from the above-mentioned plate into MHB and vortexed. Incubate at 37° C.±1° C. for approximately eighteen hours. 4. For Candida albicans (ATCC 10231): The day prior to the experiment a portion of test organism was inoculated from the above-mentioned plate into Yeast/Dextrose Broth and vortexted. Bacterial MIC determination was conducted according to Kirby-Bauer macrodilution method. The bacterial/yeast density was adjusted to approximately 10^7 CFU/m; (Approx OD625 0.1±0.05). […]

[2] = tested on: MRSA; test: MIC determination, macrodilution method; type: cell-based, Methicillin-resistant Staphylococcus aureus (ATCC 33592)
Description: as §1, §2, §3

[3] = tested on: C. albicans (yeast); test: MIC determination, macrodilution method; type: cell-based, Candida albicans (ATCC 10231)
Description: as §1
(§4) Muller Hinton Agar (MHA) was used in this study for all bacteria: BD Cat #211438, Lot number 7155220. Yeast Dextrose Broth (Y/D B) was used to test C. albicans Yeast Dextrose Broth contains 10 g/L of yeast extract and 10 g/L of dextrose. Yeast Extract Cat #BD 210933, Lot number 8074851 (Expiration 2010-01-31). Dextrose Cat # BD215530 (Lot Number 6163169). Yeast Dextrose Agar (Y/D A) was used to test C. albicans Yeast Dextrose Agar contains 10 g/L of yeast extract and 10 g/L of dextrose and 17 g/L Agar. Agar Cat # BD 214010 (Lot Number 214010).
1. The test organism, (bacteria or yeast) was obtained from frozen cultures. 2. Two days prior to the experiment, a portion of test bacterium from frozen culture collection was streaked and cultured on a non-selective agar plate (e.g. TSA). Plates were then incubated overnight at 37° C.±1° C. and the culture was examined for purity prior to use. […] 3. The day prior to the experiment, a portion of test organism was inoculated from the above-mentioned plate into MHB and vortexed. Incubate at 37° C.±1° C. for approximately eighteen hours. 4. For Candida albicans (ATCC 10231): The day prior to the experiment a portion of test organism was inoculated from the above-mentioned plate into Yeast/Dextrose Broth and vortexted. Bacterial MIC determination was conducted according to Kirby-Bauer macrodilution method. The bacterial/yeast density was adjusted to approximately 10^7 CFU/m; (Approx OD625 0.1±0.05). Stock solutions of each test article or combination were made by adding each test article to MHB to give an MHB/test article mixture of the following concentrations: Benzoyl Peroxide=6% in MHB and Mupiocin=256 μg/mL in MHB.
For bacterial: Mupirocin=256 μg/mL & BP at 0.0469% in MHB For yeast: Mupirocin=256 μg/mL & BP at 0.0115% in MHB […]

[4] = tested on: Staph epidermidis; test: MIC determination, macrodilution method; type: cell-based
Description: as §1, §2, §3

[5] = tested on: E. Coli; test: MBC determination, sub-culturing from MIC tubes; type: cell-based, Escherischia coli (ATCC 25922); conditions: Escherichia coli, value as mupirocin concentration, read-out: Mupirocin MBC & MFC
Description: as §1, §4
(§5) 1. The test organism, (bacteria or yeast) was obtained from frozen cultures. 2. Two days prior to the experiment, a portion of test bacterium from frozen culture collection was streaked and cultured on a non-selective agar plate (e.g. TSA). Plates were then incubated overnight at 37° C.±1° C. and the culture was examined for purity prior to use. […] 3. The day prior to the experiment, a portion of test organism was inoculated from the above-mentioned plate into MHB and vortexed. Incubate at 37° C.±1° C. for approximately eighteen hours. 4. […]

[6] = tested on: C. albicans (yeast); test: MBC & MFC determination, sub-culturing from MIC tubes; type: cell-based, Candida albicans (ATCC 10231); conditions: Candida albicans, value as mupirocin concentration
Description: as §1, §4, §5

[7] = tested on: E. Coli; test: MIC determination, macrodilution method; type: cell-based, Escherischia coli (ATCC 25922); conditions: Escherichia coli, MHB, approx. 24 h at 37° C., value as mupirocin concentration, combination starts at BP 0.0469%
Description: as §1, §2, §3

[8] = tested on: MRSA; test: MBC determination, sub-culturing from MIC tubes; type: cell-based, Methicillin-resistant Staphylococcus aureus (ATCC 33592); conditions: Staphylococcus aureus, mupirocin alone, read-out: Mupirocin MBC & MFC
Description: as §1, §4, §5

[9] = tested on: Staph epidermidis; test: MBC determination, sub-culturing from MIC tubes; type: cell-based; conditions: Staphylococcus epidermidis, mupirocin alone, read-out: Mupirocin MBC & MFC
Description: as §1, §4, §5

[10] = tested on: Staph organisms; test: Cidal activity (MBC) against Staph organisms; type: cell-based, Staphylococcus
Experimental: Bacterial MBC determination was conducted according to Kirby-Bauer macro-dilution method. […] The tubes were incubated for approximately 24 h at 37° C.±1° C. and then scored for their MBC.

[11] = tested on: VRE; test: MBC determination, sub-culturing from MIC tubes; type: cell-based, Vancomycin-Restistant Enterococcus faecali (ATCC 115992); conditions: Enterococcus, value as mupirocin concentration, read-out: Mupirocin MBC & MFC
Description: as §1, §4, §5

BPO in DMSO MIC ([1]; BPO alone dissolved in DMSO) | BPO in DMSO MIC ([2]; BPO alone dissolved in DMSO) | BPO in DMSO MIC ([3]; C. albicans, BPO alone dissolved in DMSO) | BPO in DMSO MIC ([4]; BPO alone dissolved in DMSO) | Structure (SMILES) | MBC [5] [µg/mL] | MIC ([1]; Enterococcus, MHB, approx. 24 h at 37° C., value as mupirocin concentration, combination starts at BP 0.0469%) [µg/mL] | MBC [6] [µg/mL] | MIC ([2]; Staphylococcus aureus, MHB, approx. 24 h at 37° C., value as mupirocin concentration, combination starts at BP 0.0469%) [µg/mL] | MIC ([3]; Candida albicans, C. albicans, approx. 24 h at 37° C., value as mupirocin concentration, combination starts at BP 0.0115%) [µg/mL] | Efficacy against the yeast C. albicans (in words) ([3]; at the concentrations tested) | MIC [7] [µg/mL] | MBC [8] [µg/mL] | MBC [9] [µg/mL] | Cidal activity against Staph organisms (in words) [10] | MIC ([4]; Staphylococcus epidermidis, MHB, approx. 24 h at 37° C., value as mupirocin concentration, combination starts at BP 0.0469%) [µg/mL] | MBC [11] [µg/mL]
0.1875% (0.78%) | 0.1875% (0.78%) | 0.046% (0.19%) | 0.1875% (0.78%) | O=C(OOC(=O)c1ccccc1)c1ccccc1 [BPO, Benzoyl peroxide] | – | – | – | – | – | – | – | – | – | – | – | –
– | – | – | – | C/C(=C\C(=O)OCCCCCCCCC(=O)O)C[C@@H]1OC[C@H](C[C@@H]2O[C@H]2[C@@H](C)[C@H](C)O)[C@@H](O)[C@H]1O [Mupirocin] | > 256 | 64 | > 256 | 1 | > 256 | ineffective | 64 | 32 | 32 | Cidal activity | 1 | > 256
